According to PubChem BioAssay AID2060901 (Molecular Pharmacology Branch, DTP, NCI, 2025):

Test system: 422866-222-R5-J1-PDC complex spheroids viability
Test: Anticancer human tumor 422866-222-R5-J1-PDC patient-derived pancreatic adenocarcinoma cell line growth inhibition [RAS]
Settings: for IC50: curve of first compound; for viability, T/C: stronger effect = lower value
How it was run: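 Agents were tested in combination matrices in half-log decrements from a top concentration at or near clinical Cmax (10 microM if undetermined). Targets were multi-cell spheroids of tumour lines plus HUVEC and MSC stromal cells.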
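Also: spheroids exposed to compounds for 7 days.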
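For viability, T/C in this document: 100% = DMSO vehicle control viability.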

Question: Which IC50 (second compound 0.000949 µM) does the source give for `CCc1c2c(nc3ccc(O)cc13)-c1cc3c(c(=O)n1C2)COC(=O)[C@]3(O)CC` + CCn1c(-c2cccnc2C(C)OC)c2c3cc(ccc31)N1CCOC(CC(NC(=O)C(C(C)C)N(C)C(=O)C3(F)CCN(C(=O)C#CC(C)(C)N(C)C)CC3)C(=O)N3CCCC(N3)C(=O)OCC(C)(C)C2)C1 here?
Answer: The IC50 was under 949 pM.

Question: And the IC50 (second compound 0.003 µM)?
Answer: Its IC50 is under 949 pM.

Question: And the IC50 (second compound 0.00949 µM)?
Answer: Its IC50 is under 949 pM.

Question: And the IC50 (second compound 0.03 µM)?
Answer: Its IC50 is under 949 pM.

Question: And the IC50 (second compound 0.0949 µM)?
Answer: The IC50 was under 949 pM.

Question: What about the IC50 (second compound 0.3 µM) of the same molecule?
Answer: Its IC50 is under 949 pM.

Question: What about the viability, T/C (second compound 0.000949 µM, first compound 0.000949 µM) of the same molecule?
Answer: Its viability, T/C is 28.2%.

Question: What about the viability, T/C (second compound 0.000949 µM, first compound 0.003 µM) of the same molecule?
Answer: Its viability, T/C is 22.7%.

Question: And the viability, T/C (second compound 0.000949 µM, first compound 0.00949 µM)?
Answer: Its viability, T/C is 26.9%.

Question: What about the viability, T/C (second compound 0.000949 µM, first compound 0.03 µM) of the same molecule?
Answer: Its viability, T/C is 22%.

Question: And the viability, T/C (second compound 0.000949 µM, first compound 0.0949 µM)?
Answer: Its viability, T/C is 19.6%.

Question: What about the viability, T/C (second compound 0.000949 µM, first compound 0.3 µM) of the same molecule?
Answer: Its viability, T/C is 15.6%.

Question: And the viability, T/C (second compound 0.003 µM, first compound 0.000949 µM)?
Answer: The viability, T/C was 24.8%.

Question: What about the viability, T/C (second compound 0.003 µM, first compound 0.003 µM) of the same molecule?
Answer: The viability, T/C was 15.5%.

Question: And the viability, T/C (second compound 0.003 µM, first compound 0.00949 µM)?
Answer: The viability, T/C was 15.5%.

Question: What about the viability, T/C (second compound 0.003 µM, first compound 0.03 µM) of the same molecule?
Answer: Its viability, T/C is 14.1%.

Question: What about the viability, T/C (second compound 0.003 µM, first compound 0.0949 µM) of the same molecule?
Answer: Its viability, T/C is 15.5%.

Question: What about the viability, T/C (second compound 0.003 µM, first compound 0.3 µM) of the same molecule?
Answer: Its viability, T/C is 15.1%.

Question: What about the viability, T/C (second compound 0.00949 µM, first compound 0.000949 µM) of the same molecule?
Answer: Its viability, T/C is 22.1%.

Question: And the viability, T/C (second compound 0.00949 µM, first compound 0.003 µM)?
Answer: The viability, T/C was 17.7%.

Question: What about the viability, T/C (second compound 0.00949 µM, first compound 0.00949 µM) of the same molecule?
Answer: Its viability, T/C is 17.7%.

Question: What about the viability, T/C (second compound 0.00949 µM, first compound 0.03 µM) of the same molecule?
Answer: The viability, T/C was 15%.

Question: And the viability, T/C (second compound 0.00949 µM, first compound 0.0949 µM)?
Answer: Its viability, T/C is 14.6%.

Question: What about the viability, T/C (second compound 0.00949 µM, first compound 0.3 µM) of the same molecule?
Answer: The viability, T/C was 12.3%.

Question: What about the viability, T/C (second compound 0.03 µM, first compound 0.000949 µM) of the same molecule?
Answer: The viability, T/C was 19.5%.

Question: What about the viability, T/C (second compound 0.03 µM, first compound 0.003 µM) of the same molecule?
Answer: The viability, T/C was 15.7%.

Question: What about the viability, T/C (second compound 0.03 µM, first compound 0.00949 µM) of the same molecule?
Answer: The viability, T/C was 14.8%.

Question: And the viability, T/C (second compound 0.03 µM, first compound 0.03 µM)?
Answer: Its viability, T/C is 13.9%.

Question: And the viability, T/C (second compound 0.03 µM, first compound 0.0949 µM)?
Answer: Its viability, T/C is 13.2%.

Question: And the viability, T/C (second compound 0.03 µM, first compound 0.3 µM)?
Answer: Its viability, T/C is 10.7%.

Question: What about the viability, T/C (second compound 0.0949 µM, first compound 0.000949 µM) of the same molecule?
Answer: The viability, T/C was 15.9%.

Question: And the viability, T/C (second compound 0.0949 µM, first compound 0.003 µM)?
Answer: Its viability, T/C is 13%.

Question: What about the viability, T/C (second compound 0.0949 µM, first compound 0.00949 µM) of the same molecule?
Answer: Its viability, T/C is 11.3%.

Question: And the viability, T/C (second compound 0.0949 µM, first compound 0.03 µM)?
Answer: The viability, T/C was 12.3%.

Question: What about the viability, T/C (second compound 0.0949 µM, first compound 0.0949 µM) of the same molecule?
Answer: The viability, T/C was 11.1%.

Question: What about the viability, T/C (second compound 0.0949 µM, first compound 0.3 µM) of the same molecule?
Answer: Its viability, T/C is 9.62%.

Question: And the viability, T/C (second compound 0.3 µM, first compound 0.000949 µM)?
Answer: The viability, T/C was 13.9%.

Question: And the viability, T/C (second compound 0.3 µM, first compound 0.003 µM)?
Answer: Its viability, T/C is 14.3%.

Question: What about the viability, T/C (second compound 0.3 µM, first compound 0.00949 µM) of the same molecule?
Answer: The viability, T/C was 11.5%.

Question: What about the viability, T/C (second compound 0.3 µM, first compound 0.03 µM) of the same molecule?
Answer: Its viability, T/C is 10.7%.

Question: What about the viability, T/C (second compound 0.3 µM, first compound 0.0949 µM) of the same molecule?
Answer: The viability, T/C was 10.3%.

Question: What about the viability, T/C (second compound 0.3 µM, first compound 0.3 µM) of the same molecule?
Answer: The viability, T/C was 7%.

Question: What does the source list for `CC(C)n1nc(-c2ccc3oc(N)nc3c2)c2c(N)ncnc21` + CCn1c(-c2cc(N3CCN(C)CC3)cnc2C(C)OC)c2c3cc(ccc31)-c1csc(n1)CC(NC(=O)C1CC1C)C(=O)N1CCCC(N1)C(=O)OCC(C)(C)C2?
Answer: IC50 (second compound 0.000949 µM): < 316 pM; IC50 (second compound 0.003 µM): < 316 pM; IC50 (second compound 0.00949 µM): < 316 pM; IC50 (second compound 0.03 µM): < 316 pM; IC50 (second compound 0.0949 µM): < 316 pM; IC50 (second compound 0.3 µM): < 316 pM; viability, T/C (second compound 0.000949 µM, first compound 0.000316 µM): 35.2%; viability, T/C (second compound 0.000949 µM, first compound 0.001 µM): 28.7%; viability, T/C (second compound 0.000949 µM, first compound 0.00316 µM): 24.4%; viability, T/C (second compound 0.000949 µM, first compound 0.01 µM): 24.5%; viability, T/C (second compound 0.000949 µM, first compound 0.0316 µM): 19.7%; viability, T/C (second compound 0.000949 µM, first compound 0.1 µM): 21%; viability, T/C (second compound 0.003 µM, first compound 0.000316 µM): 24.4%; viability, T/C (second compound 0.003 µM, first compound 0.001 µM): 22.4%; viability, T/C (second compound 0.003 µM, first compound 0.00316 µM): 19.5%; viability, T/C (second compound 0.003 µM, first compound 0.01 µM): 17%; viability, T/C (second compound 0.003 µM, first compound 0.0316 µM): 14.3%; viability, T/C (second compound 0.003 µM, first compound 0.1 µM): 14.4%; viability, T/C (second compound 0.00949 µM, first compound 0.000316 µM): 22.5%; viability, T/C (second compound 0.00949 µM, first compound 0.001 µM): 16.5%; viability, T/C (second compound 0.00949 µM, first compound 0.00316 µM): 17.8%; viability, T/C (second compound 0.00949 µM, first compound 0.01 µM): 14.2%; viability, T/C (second compound 0.00949 µM, first compound 0.0316 µM): 13.8%; viability, T/C (second compound 0.00949 µM, first compound 0.1 µM): 11.2%; viability, T/C (second compound 0.03 µM, first compound 0.000316 µM): 19.3%; viability, T/C (second compound 0.03 µM, first compound 0.001 µM): 16.1%; viability, T/C (second compound 0.03 µM, first compound 0.00316 µM): 19.1%; viability, T/C (second compound 0.03 µM, first compound 0.01 µM): 15.7%; viability, T/C (second compound 0.03 µM, first compound 0.0316 µM): 11.6%; viability, T/C (second compound 0.03 µM, first compound 0.1 µM): 8.47%; viability, T/C (second compound 0.0949 µM, first compound 0.000316 µM): 17.7%; viability, T/C (second compound 0.0949 µM, first compound 0.001 µM): 20.1%; viability, T/C (second compound 0.0949 µM, first compound 0.00316 µM): 18.3%; viability, T/C (second compound 0.0949 µM, first compound 0.01 µM): 14.2%; viability, T/C (second compound 0.0949 µM, first compound 0.0316 µM): 12.2%; viability, T/C (second compound 0.0949 µM, first compound 0.1 µM): 10.9%; viability, T/C (second compound 0.3 µM, first compound 0.000316 µM): 19.7%; viability, T/C (second compound 0.3 µM, first compound 0.001 µM): 21.3%; viability, T/C (second compound 0.3 µM, first compound 0.00316 µM): 20.5%; viability, T/C (second compound 0.3 µM, first compound 0.01 µM): 16.4%; viability, T/C (second compound 0.3 µM, first compound 0.0316 µM): 14.5%; viability, T/C (second compound 0.3 µM, first compound 0.1 µM): 10.9%
